The results in this text go back to PubChem BioAssay AID256 (DTP/NCI, 2004).

Values joined by “and” are separate entries in the source; they are usually repeats but may differ in a detail not shown here. Identical values can stand only once. Inconclusive results and toxic doses are left out.

The subject of this assay is CD2F1 mice, L1210 leukemia ip, survival T/C. As to the kind of experiment: NCI In Vivo Anticancer Drug Screen. Data for tumor model L1210 Leukemia (intraperitoneal) in CD2F1 (CDF1) mice. The note with it: higher = longer survival. In short, it runs like this:
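Antitumor effect is scored in animals hosting a serially transplanted tumor. Values compare compound-dosed animals against vehicle-only controls as a simple quotient.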

For `O=C(O)CCC(=O)O`, the T/C runs as follows: (endpoint: mean survival time, dose: 10.0 mg/kg/injection, schedule: Q01DX009 (ip), vehicle: saline) 104 % of control; (endpoint: mean survival time, dose: 10.0 mg/kg/injection, schedule: Q01DX009 (ip), vehicle: water) 95 % of control and 98 % of control; (endpoint: mean survival time, dose: 20.0 mg/kg/injection, schedule: Q01DX001 (ip), vehicle: saline) 104 % of control; (endpoint: mean survival time, dose: 20.0 mg/kg/injection, schedule: Q01DX001 (ip), vehicle: water) 95 % of control and 98 % of control; (endpoint: mean survival time, dose: 20.0 mg/kg/injection, schedule: Q01DX009 (ip), vehicle: saline) 97 % of control; (endpoint: mean survival time, dose: 20.0 mg/kg/injection, schedule: Q01DX009 (ip), vehicle: water) 101 % of control and 98 % of control. Further, the T/C is 96 % of control (endpoint: mean survival time, dose: 20.0 mg/kg/injection, schedule: Q04DX003 (ip), vehicle: saline); 98 % of control (endpoint: mean survival time, dose: 20.0 mg/kg/injection, schedule: Q04DX003 (ip), vehicle: water); 104 % of control (endpoint: mean survival time, dose: 40.0 mg/kg/injection, schedule: Q01DX001 (ip), vehicle: saline); 103 % of control and 101 % of control (endpoint: mean survival time, dose: 40.0 mg/kg/injection, schedule: Q01DX001 (ip), vehicle: water); 104 % of control (endpoint: mean survival time, dose: 40.0 mg/kg/injection, schedule: Q01DX009 (ip), vehicle: saline); 97 % of control and 95 % of control (endpoint: mean survival time, dose: 40.0 mg/kg/injection, schedule: Q01DX009 (ip), vehicle: water). Also, the T/C is 102 % of control (endpoint: mean survival time, dose: 40.0 mg/kg/injection, schedule: Q04DX003 (ip), vehicle: saline); 96 % of control (endpoint: mean survival time, dose: 40.0 mg/kg/injection, schedule: Q04DX003 (ip), vehicle: water); 103 % of control (endpoint: mean survival time, dose: 80.0 mg/kg/injection, schedule: Q01DX001 (ip), vehicle: saline); 97 % of control (endpoint: mean survival time, dose: 80.0 mg/kg/injection, schedule: Q01DX001 (ip), vehicle: water); 104 % of control (endpoint: mean survival time, dose: 80.0 mg/kg/injection, schedule: Q01DX009 (ip), vehicle: saline); 95 % of control and 97 % of control (endpoint: mean survival time, dose: 80.0 mg/kg/injection, schedule: Q01DX009 (ip), vehicle: water). The T/C reads like this: (endpoint: mean survival time, dose: 80.0 mg/kg/injection, schedule: Q04DX003 (ip), vehicle: saline) 98 % of control; (endpoint: mean survival time, dose: 80.0 mg/kg/injection, schedule: Q04DX003 (ip), vehicle: water) 91 % of control and 96 % of control; (endpoint: mean survival time, dose: 160.0 mg/kg/injection, schedule: Q01DX001 (ip), vehicle: saline) 101 % of control; (endpoint: mean survival time, dose: 160.0 mg/kg/injection, schedule: Q01DX001 (ip), vehicle: water) 98 % of control and 93 % of control; (endpoint: mean survival time, dose: 160.0 mg/kg/injection, schedule: Q01DX009 (ip), vehicle: saline) 98 % of control; (endpoint: mean survival time, dose: 160.0 mg/kg/injection, schedule: Q01DX009 (ip), vehicle: water) 98 % of control and 90 % of control. The T/C is 101 % of control (endpoint: mean survival time, dose: 160.0 mg/kg/injection, schedule: Q04DX003 (ip), vehicle: saline); 98 % of control and 93 % of control (endpoint: mean survival time, dose: 160.0 mg/kg/injection, schedule: Q04DX003 (ip), vehicle: water); 106 % of control (endpoint: mean survival time, dose: 320.0 mg/kg/injection, schedule: Q01DX001 (ip), vehicle: saline); 101 % of control (endpoint: mean survival time, dose: 320.0 mg/kg/injection, schedule: Q01DX001 (ip), vehicle: water); 98 % of control (endpoint: mean survival time, dose: 320.0 mg/kg/injection, schedule: Q04DX003 (ip), vehicle: saline); 87 % of control and 98 % of control (endpoint: mean survival time, dose: 320.0 mg/kg/injection, schedule: Q04DX003 (ip), vehicle: water). Also, the T/C was 103 % of control (endpoint: mean survival time, dose: 640.0 mg/kg/injection, schedule: Q01DX001 (ip), vehicle: saline) and 101 % of control (endpoint: mean survival time, dose: 640.0 mg/kg/injection, schedule: Q01DX001 (ip), vehicle: water).
As for `CC12CCc3c(ccc4cc(O)ccc34)C1CCC2=O` (configuration not stated), the T/C (endpoint: mean survival time, dose: 100.0 mg/kg/injection, schedule: Q04DX003 (ip), vehicle: saline) was 100 % of control; the T/C (endpoint: mean survival time, dose: 200.0 mg/kg/injection, schedule: Q04DX003 (ip), vehicle: saline) was 97 % of control; the T/C (endpoint: mean survival time, dose: 400.0 mg/kg/injection, schedule: Q04DX003 (ip), vehicle: saline) is 97 % of control.
With `NC(N)=N/N=C/c1c(O)ccc2ccccc12`, the T/C was 102 % of control (endpoint: mean survival time, dose: 31.25 mg/kg/injection, schedule: Q01DX010 (oral), vehicle: saline); 108 % of control (endpoint: mean survival time, dose: 62.5 mg/kg/injection, schedule: Q01DX010 (oral), vehicle: saline); 101 % of control (endpoint: mean survival time, dose: 125.0 mg/kg/injection, schedule: Q01DX010 (oral), vehicle: saline).
Turning to `CC(=O)C(C(=O)Nc1ccccc1)c1cc(NS(=O)(=O)c2ccccc2)ccc1O` (configuration not stated), the T/C runs as follows: (endpoint: mean survival time, dose: 100.0 mg/kg/injection, schedule: Q04DX003 (ip), vehicle: saline with Tween-80) 102 % of control; (endpoint: mean survival time, dose: 200.0 mg/kg/injection, schedule: Q04DX003 (ip), vehicle: saline with Tween-80) 96 % of control; (endpoint: mean survival time, dose: 400.0 mg/kg/injection, schedule: Q04DX003 (ip), vehicle: saline with Tween-80) 91 % of control.
As for `c1ccc(Cc2ccccn2)nc1`, the T/C runs as follows: (endpoint: mean survival time, dose: 100.0 mg/kg/injection, schedule: Q01DX009 (ip), vehicle: saline) 110 % of control; (endpoint: mean survival time, dose: 200.0 mg/kg/injection, schedule: Q01DX009 (ip), vehicle: saline) 101 % of control; (endpoint: mean survival time, dose: 400.0 mg/kg/injection, schedule: Q01DX009 (ip), vehicle: saline) 90 % of control.
Regarding `Cc1cn(C2CC(O)C(CO)O2)c(=O)[n]([Hg][c]2ccccc2)c1=O` (configuration not stated), the T/C runs as follows: (endpoint: median survival time, dose: 0.79 mg/kg/injection, schedule: Q01DX005 (ip), vehicle: saline) 110 % of control; (endpoint: median survival time, dose: 1.56 mg/kg/injection, schedule: Q01DX005 (ip), vehicle: saline) 103 % of control; (endpoint: median survival time, dose: 3.12 mg/kg/injection, schedule: Q01DX005 (ip), vehicle: saline) 112 % of control; (endpoint: median survival time, dose: 6.25 mg/kg/injection, schedule: Q01DX005 (ip), vehicle: saline) 103 % of control; (endpoint: median survival time, dose: 12.5 mg/kg/injection, schedule: Q01DX005 (ip), vehicle: saline) 103 % of control.
Regarding `Cc1ccc(Nc2c3ccccc3nc3ccccc23)cc1`, the T/C reads like this: (endpoint: mean survival time, dose: 37.5 mg/kg/injection, schedule: Q04DX003 (ip), vehicle: saline with Tween-80) 101 % of control; (endpoint: mean survival time, dose: 40.0 mg/kg/injection, schedule: Q04DX003 (ip), vehicle: other) 120 % of control; (endpoint: mean survival time, dose: 75.0 mg/kg/injection, schedule: Q04DX003 (ip), vehicle: saline with Tween-80) 102 % of control; (endpoint: mean survival time, dose: 150.0 mg/kg/injection, schedule: Q04DX003 (ip), vehicle: other) 160 % of control.
Regarding `CCCc1nc2[nH]c(N)nc(=S)c2[nH]1`, the T/C is, setting by setting: (endpoint: mean survival time, dose: 12.5 mg/kg/injection, schedule: Q01DX005 (ip), vehicle: other) 100 % of control; (endpoint: mean survival time, dose: 25.0 mg/kg/injection, schedule: Q01DX005 (ip), vehicle: other) 108 % of control.
Take `O=C(c1ccccc1)C1(O)CCCCC1`: the T/C by setting is: (endpoint: mean survival time, dose: 50.0 mg/kg/injection, schedule: Q01DX009 (ip), vehicle: saline sonified) 97 % of control; (endpoint: mean survival time, dose: 100.0 mg/kg/injection, schedule: Q01DX009 (ip), vehicle: saline sonified) 105 % of control; (endpoint: mean survival time, dose: 200.0 mg/kg/injection, schedule: Q01DX009 (ip), vehicle: saline sonified) 97 % of control.
For `N#CCCOP(=O)(N1CC1)N1CC1`, the T/C reads like this: (endpoint: mean survival time, dose: 3.9 mg/kg/injection, schedule: Q01DX001 (ip), vehicle: Klucel (hydroxypropylcellulose) (HPC)) 100 % of control; (endpoint: mean survival time, dose: 4.0 mg/kg/injection, schedule: Q01DX009 (ip), vehicle: water) 104 % of control; (endpoint: mean survival time, dose: 7.8 mg/kg/injection, schedule: Q01DX001 (ip), vehicle: Klucel (hydroxypropylcellulose) (HPC)) 100 % of control; (endpoint: mean survival time, dose: 8.0 mg/kg/injection, schedule: Q01DX009 (ip), vehicle: water) 114 % of control; (endpoint: mean survival time, dose: 15.6 mg/kg/injection, schedule: Q01DX001 (ip), vehicle: Klucel (hydroxypropylcellulose) (HPC)) 109 % of control; (endpoint: mean survival time, dose: 31.2 mg/kg/injection, schedule: Q01DX001 (ip), vehicle: Klucel (hydroxypropylcellulose) (HPC)) 122 % of control. Moreover, the T/C was 121 % of control (endpoint: mean survival time, dose: 62.5 mg/kg/injection, schedule: Q01DX001 (ip), vehicle: Klucel (hydroxypropylcellulose) (HPC)) and 90 % of control (endpoint: mean survival time, dose: 64.0 mg/kg/injection, schedule: Q01DX009 (ip), vehicle: water).
As for `Cc1c(Cl)cccc1NC(=O)Nc1ccc(F)c([N+](=O)[O-])c1`, the T/C reads like this: (endpoint: mean survival time, dose: 50.0 mg/kg/injection, schedule: Q01DX009 (ip), vehicle: Klucel (hydroxypropylcellulose) (HPC)) 91 % of control; (endpoint: mean survival time, dose: 100.0 mg/kg/injection, schedule: Q01DX009 (ip), vehicle: Klucel (hydroxypropylcellulose) (HPC)) 102 % of control; (endpoint: mean survival time, dose: 200.0 mg/kg/injection, schedule: Q01DX009 (ip), vehicle: Klucel (hydroxypropylcellulose) (HPC)) 98 % of control.
In the case of `NC(=S)N/N=C/c1ccc(I)cn1`, the T/C is, setting by setting: (endpoint: mean survival time, dose: 100.0 mg/kg/injection, schedule: Q04DX002 (ip), vehicle: saline with Tween-80) 93 % of control; (endpoint: mean survival time, dose: 200.0 mg/kg/injection, schedule: Q04DX002 (ip), vehicle: saline with Tween-80) 93 % of control; (endpoint: mean survival time, dose: 400.0 mg/kg/injection, schedule: Q04DX002 (ip), vehicle: saline with Tween-80) 93 % of control.
